Some results are limits rather than exact numbers.

The experiment concerns the target T1, hCD38 Enzyme (Homo sapiens, UniProt P28907).
T1 construct: purchased Sino Biological Inc 10818-H08H
T1 sequence (P28907 43-300 limits assumed): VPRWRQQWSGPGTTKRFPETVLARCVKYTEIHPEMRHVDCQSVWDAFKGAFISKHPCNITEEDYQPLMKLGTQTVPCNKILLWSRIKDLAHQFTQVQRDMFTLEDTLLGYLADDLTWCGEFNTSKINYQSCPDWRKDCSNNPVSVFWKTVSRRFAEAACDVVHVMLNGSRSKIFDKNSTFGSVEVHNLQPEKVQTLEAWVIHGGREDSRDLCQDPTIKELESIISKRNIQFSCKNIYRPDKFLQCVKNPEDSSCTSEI
Kind of experiment: CD38 hydrolase enzymatic assay. The format is biochemical. The note with it: rhCD38, ε-NAD substrate, 25° C., point reading time 20 mins; read-out: hCD38 Enzyme inhibition IC50. Here is the method:
Also, a blank sample was prepared with 50 μl of sucrose buffer and no test compounds.
The dynamic reading was performed at 25° C. with excitation light of 300 nm and emission light of 410 nm on the enzyme marker by contacting the above-prepared rhCD38 enzyme working fluid and the above-prepared solutions of the test compounds disclosed herein or the solution of the control. The readings were recorded for a total of 1 hour, and the data were analyzed with the point reading time of 20 mins.
Fluorescence was recorded by a microplate reader. Individual excel files containing fluorescence data were exported and the results were plotted against various drug concentrations and analyzed in GraphPad Prism 7.0 for concentration curve generation.
On to `CO[C@H]1CC[C@H](NC(=O)c2cc(-n3ccnc3)nc(N)n2)CC1` [compound 21, 2-amino-6-(1H-imidazol-1-yl)-N-((1r,4r)-4-methoxycyclohexyl)pyrimidine-4-carboxamide], for which the IC50 was 8 nM.
In the case of `COCCOc1cc(F)cc(NC(=O)c2cc(C(F)(F)F)nc(-n3ccnc3)n2)c1` [Compound 182], the IC50 worked out at 9.6 nM.
With `CO[C@H]1CC[C@H](NC(=O)c2ccc(C(F)(F)F)c(-n3ccnc3)n2)CC1` [compound 152, 6-(1H-imidazol-1-yl)-N-((1r,4r)-4-methoxycyclohexyl)-5-(trifluoromethyl) picolinamide] the figure was > 10000 nM; with `CO[C@H]1CC[C@H](NC(=O)c2cc(C(F)(F)F)nc(-n3ccnc3)n2)CC1` [compound 103, 2-(1H-imidazol-1-yl)-N-((1r,4r)-4-methoxycyclohexyl)-6-(trifluoromethyl) pyrimidine-4-carboxamide], 28 nM; with `O=C(Nc1cnc(OCCO)nc1)c1cc(C(F)(F)F)nc(-n2ccnc2)n1` [compound 193, N-(2-(2-hydroxyethoxy)pyrimidin-5-yl)-2-(1H-imidazol-1-yl)-6-(trifluoromethyl) pyrimidine-4-carboxamide], 11 nM.
Take `CO[C@H]1CC[C@H](NC(=O)c2ccc(N)c(-n3ccnc3)n2)CC1` [compound 20, 5-amino-6-(1H-imidazol-1-yl)-N-((1r,4r)-4-methoxycyclohexyl)picolinamide]: the IC50 is > 10000 nM.
For the molecule `O=C(Nc1ccccc1F)c1ccnc(-n2ccnc2)n1` [compound 84, N-(2-fluorophenyl)-2-(1H-imidazol-1-yl)pyrimidine-4-carboxamide], the IC50 stood at 13 nM.
On to `O=C(Nc1cccc(N2CCOCC2)c1)c1cc(C(F)(F)F)nc(-n2ccnc2)n1` [compound 177, 2-(1H-imidazol-1-yl)-N-(3-morpholinophenyl)-6-(trifluoromethyl) pyrimidine-4-carboxamide], for which the IC50 was determined as 38 nM.
The result for `O=C(Nc1cccc(Cl)c1)c1cc(C(F)(F)F)nc(-n2ccnc2)n1` [compound 124, N-(3-chlorophenyl)-2-(1H-imidazol-1-yl)-6-(trifluoromethyl) pyrimidine-4-carboxamide] reads 3 nM; that for `COCCO[C@H]1CC[C@H](NC(=O)c2cc(C(F)(F)F)nc(-n3ccnc3)n2)CC1` [compound 157, 2-(1H-imidazol-1-yl)-N-((1r,4r)-4-(2-methoxyethoxy)cyclohexyl)-6-(trifluoromethyl) pyrimidine-4-carboxamide], 49 nM.
`O=C(Nc1cc(F)cc(N2CC[C@H](O)C2)c1)c1cc(C(F)(F)F)nc(-n2ccnc2)n1` [compound 178, (S)-N-(3-fluoro-5-(3-hydroxypyrrolidin-1-yl)phenyl)-2-(1H-imidazol-1-yl)-6-(trifluoromethyl) pyrimidine-4-carboxamide]: the IC50 was found to be 17.3 nM.
The result for `CO[C@H]1CC[C@H](NC(=O)c2cc(-n3ccnc3)cc(Cl)n2)CC1` [compound 2, 6-chloro-4-(1H-imidazol-1-yl)-N-((1r,4r)-4-methoxycyclohexyl)picolinamide] reads 2710 nM.
In the case of `CO[C@H]1CC[C@H](NC(=O)c2cccc(-c3cncs3)n2)CC1` [compound 12, N-((1r,4r)-4-methoxycyclohexyl)-6-(thiazol-5-yl)picolinamide], the IC50 was > 10000 nM.
As for `CO[C@H]1CC[C@H](NC(=O)c2nc(-n3ccnc3)ccc2C(F)(F)F)CC1` [compound 151, 6-(1H-imidazol-1-yl)-N-((1r,4r)-4-methoxycyclohexyl)-3-(trifluoromethyl) picolinamide], the IC50 came out at 1550 nM.
For `N#Cc1cc(C(=O)Nc2cncnc2)nc(-n2ccnc2)n1` [compound 189, 6-cyano-2-(1H-imidazol-1-yl)-N-(pyrimidin-5-yl)pyrimidine-4-carboxamide], the IC50 stood at 12 nM.
The result for `CNc1ncc(-n2ccnc2)nc1C(=O)N[C@H]1CC[C@H](OC)CC1` [compound 47, 6-(1H-imidazol-1-yl)-N-((1r,4r)-4-methoxycyclohexyl)-3-(methylamino)pyrazine-2-carboxamide] reads 38 nM.

Broadly, the IC50 is the concentration that gives 50% inhibition.

(Values after US12679832B2, “Compounds and their uses as CD38 inhibitors” (Nanjing Immunophage Biotech Co., Ltd., priority 2021, dated 2026).)
